Values quoted from earlier work, collected in patent publication US9339478B2, “Pharmaceutical formulation” (RECKITT BENCKISER LLC, priority 2011, dated 2016).

Conditions: per dose, typical

For `COc1ccc2c3c1O[C@H]1[C@@H](O)C=C[C@H]4[C@@H](C2)N(C)CC[C@@]341` [codeine], the “period of therapeutic effect / relief provided by a dose” value is given as 2.5 to 3 h.
